From patent publication US8999973B2, “Thieno[3,2-d]pyrimidine derivatives having inhibitory activity on protein kinases” (Hanmi Science Co., Ltd, priority 2010, dated 2015) come the findings set out here.

Numbering of substitutions follows the chain as printed.

The term IC50 denotes the concentration that gives 50% inhibition. Low readings indicate greater potency, high ones weaker potency.

In experiment [1] the target is T1, Bcr-Abl^T315I (Homo sapiens, UniProt P00519, T315I).
T1 construct: purchased Millipore
T1 sequence (P00519 242-493 T315I limits assumed): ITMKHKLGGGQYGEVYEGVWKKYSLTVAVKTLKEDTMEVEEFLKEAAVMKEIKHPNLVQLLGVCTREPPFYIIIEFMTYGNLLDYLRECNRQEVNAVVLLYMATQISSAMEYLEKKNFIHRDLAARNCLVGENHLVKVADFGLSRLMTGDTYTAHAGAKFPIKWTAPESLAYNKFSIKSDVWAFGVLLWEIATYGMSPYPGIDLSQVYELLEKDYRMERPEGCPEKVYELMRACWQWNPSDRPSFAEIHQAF
The experiment is described as follows: Kinase activation assay (IC50), fluorescence polarization tyrosine kinase assay kit. To be noted: T315I mutation kinase domain (Millipore), Poly (Glu, Tyr) 4:1 substrate, FP readout. The class given is biochemical. The protocol: (§1) Test 1: Kinase Activation Assay (IC50)
(§2) A kinase domain (Millipore) comprising the entire cytoplasmic sequences of Bcr-Abl^wt and Bcr-Abl^T315I mutation kinases and a tyrosine kinase assay kit (Panvera, P2837) were used to measure an inhibitory activation on Bcr-abl. Other kinases such as FGFR, Flt, KDR, PDGFR, Fms, Kit, Raf, Tie2, Src, and Ret were also measured by the same method. In order to prepare a sample, the each compound obtained in Examples 1 to 128 was diluted 10 times with a kinase buffer to a concentration of 10˜0.0001 μM.
(§3) The each kinase was diluted with a kinase buffer to a concentration of 30˜300 ng/assay by using the each Kd value. The kinase buffer consisted of 100 mM HEPES (PH 7.4), 25 mM MgCl2, 10 mM MnCl2, and 250 μM Na3VO4, being kept refrigerated after filtered.
(§4) The test was conducted in 96 well polystyrene round bottom plates. First, 10 μL of the diluted sample was combined with 10 μL of the enzyme solution at room temperature for 10 minutes using a shaker. 10 μL of Poly (Glu, Tyr) 4:1 (Sigma) matrix solution in an appropriate concentration and 10 μL of ATP solution (5˜300 μM) were added to the sample and subjected to a reaction at room temperature for 60 minutes in a shaker. After 60 minutes, an EDTA solution was added thereto to complete the kinase reaction and the reaction mixture was left in a shaker for 5 minutes at room temperature. A tracer, an antibody, and a fluorescence polarization (FP) diluted reaction solution were mixed at a ratio of 1:1:3 to prepare a detecting solution, 50 μL of which was added to the each sample and subjected to a reaction at room temperature for 30 minutes in a shaker. As fluorescing, light was blocked out and the FP value was measured using a FP instrument (excitation wavelength: 485 nm, and emission wavelength: 530 nm).
(§5) And the inhibition on kinase reaction was calculated for the sample in the range of 0˜100% as compared to the control group, and the concentration on x-axis at 50% inhibition was obtained as an inhibitory concentration (IC50) value.
(§6) 50% inhibitory concentration (IC50) Y=bottom+(top−bottom)/(1+10exp(X−log IC50)
Background: Polarisation of emitted light reports the rotation of a fluorescent probe.

The target of experiment [2] is T2, Bcr-Abl^wt (Homo sapiens, UniProt P00519).
T2 construct: purchased Millipore
T2 sequence (P00519 242-493 limits assumed): T1 sequence (P00519 242-493 T315I limits assumed) with I74T
Described as above. Format: biochemical. Conditions: kinase domain (Millipore), Poly (Glu, Tyr) 4:1 substrate, FP readout. Here is the method: as §1, §2, §3, §4, §5, §6

As to `CN(C)[C@H]1CCN(c2cc(C(=O)Nc3ccc(F)c(NC(=O)c4csc5c(NC6CC6)ncnc45)c3)cc(C(F)(F)F)c2)C1` [Example 107, (S)-4-(cyclopropylamino)-N-(5-(3-(3-(dimethylamino)pyrrolidine-1-yl)-5-(trifluoromethyl)benzoamido)-2-fluorophenyl)thieno[3,2-d]pyrimidine-7-carboxamide], the figures for the IC50 in experiment [1] and in experiment [2] were 100 to 1000 nM and 1 to 100 nM, respectively.
With `CCN1CCN(c2cc(C(=O)Nc3ccc(C)c(NC(=O)c4csc5c(NC6CC6)ncnc45)c3)cc(C(F)(F)F)c2)CC1` [Example 110, 4-(cyclopropylamino)-N-(5-(3-(4-ethylpiperazin-1-yl)-5-(trifluoromethyl)benzoamido)-2-methylphenyl)thieno[3,2-d]pyrimidine-7-carboxamide], the IC50 in experiment [1] lay in the range of 100 to 1000 nM; in experiment [2], 1 to 100 nM.
On the same counts, the results for `Cc1ccc(NC(=O)c2cc(N3CCC[C@H]3C)cc(C(F)(F)F)c2)cc1NC(=O)c1csc2c(NC3CC3)ncnc12` [Example 113, (R)-4-(cyclopropylamino)-N-(2-methyl-5-(3-(2-methylpyrrolidine-1-yl)-5-(trifluoromethyl)benzoamido)phenyl)thieno[3,2-d]pyrimidine-7-carboxamide] are 100 to 1000 nM and 100 to 1000 nM.
For `Cc1ccc(NC(=O)c2cc(NC3CCN(C)CC3)cc(C(F)(F)F)c2)cc1NC(=O)c1csc2c(NC3CC3)ncnc12` [Example 116, 4-(cyclopropylamino)-N-(2-methyl-5-(3-(1-methylpiperidine-4-ylamino)-5-(trifluoromethyl)benzoamido)phenyl)thieno[3,2-d]pyrimidine-7-carboxamide] the same measures were 1 to 100 nM and 1 to 100 nM.
On the same counts, the results for `Cc1cn(-c2cc(C(=O)Nc3ccc(F)c(NC(=O)c4csc5c(NC6CC6)ncnc45)c3)cc(C(F)(F)F)c2)cn1` [Example 121, 4-(cyclopropylamino)-N-(2-fluoro-5-(3-(4-methyl-1H-imidazole-1-yl)-5-(trifluoromethyl)benzoamido)phenyl)thieno[3,2-d]pyrimidine-7-carboxamide] are 1 to 100 nM and 1 to 100 nM.
